How the values were obtained:
[1] = biological target: KRAS (G12D)::CRAF protein::protein interaction (Homo sapiens (Human), UniProt P01116, G12D); assay: KRAS TR-FRET assay (KRAS G12D::CRAF, GTP); format: binding
Description: (§1) This assay measures the inhibitory effect of compounds on KRAS::CRAF protein::protein interactions in the presence of GTP using Time-resolved fluorescence energy transfer (TR-FRET).
(§2) The following wildtype or mutant alleles of KRAS and CRAF protein have been used at the given concentrations:
KRAS (G12D) 1-169, N-terminal 6His-tag, C-terminal avi-tag (Xtal BioStructures, Inc.); final assay concentration 15 nM,
(§3) CRAF Ras binding domain, GST-tag, TEV cleavage site (Boehringer Ingelheim in house protein prep); final assay concentration 15 nM.
(§4) Test compounds dissolved in DMSO were dispensed onto assay plates (Proxiplate 384 PLUS, white, PerkinElmer; 6008289) using an Access Labcyte Workstation with the Labcyte Echo 55x. For the chosen highest assay concentration of 100 μM, 150 nl of compound solution was transferred from a 10 mM DMSO compound stock solution. A series of eleven fivefold dilutions per compound was transferred to the assay plate, compound dilutions were tested in duplicates. DMSO was added as backfill to a total volume of 150 nl.
(§5) The assay runs on a fully automated robotic system. To 150 nl of compound dilution 15 μl of a mix including the respective KRAS allele, CRAF (e.g. KRAS (G12D)::CRAF; final assay concentrations see above), GTP nucleotide (Sigma G8877; final assay concentration 10 μM), Lance Eu—W1024 labeled Streptavidin (PerkinElmer, Cat No AD0063; final assay concentration 1.5 nM) and Anti-GST surelight APC (PerkinElmer, Cat No AD0059G; final assay concentration 30 nM) in assay buffer (1×PBS, 0.1% BSA, 0.05% Tween 20) are added into columns 1-23 and 15 μL of the solution without the respective KRAS allele were added to row 24.
(§6) Plates are kept at room temperature in a darkened incubator. After 60 minutes incubation time the signal is measured in a PerkinElmer Envision HTS Multilabel Reader using the TR-FRET LANCE Ultra specs from PerkinElmer.
(§7) Each plate contains 16 wells of a negative control (diluted DMSO instead of test compound; w respective KRAS allele; column 23) and 16 wells of a positive control (diluted DMSO instead of test compound; w/o respective KRAS allele; column 24).
(§8) IC50 values were calculated and analyzed with Boehringer Ingelheim's MEGALAB 50 application using a 4 parametric logistic model.
(§9) Tables of example compounds disclosed herein contain IC50 values determined using the above assays (see Table 44).

[2] = biological target: KRAS (G12V)::CRAF protein::protein interaction (Homo sapiens (Human), UniProt P01116, C118S/G12V); assay: KRAS TR-FRET assay (KRAS G12V::CRAF, GTP); format: binding
Description: as §1, §2
KRAS (G12V) 1-169, C118S, N-terminal 6His-tag, C-terminal avi-tag (Boehringer Ingelheim in house protein prep); final assay concentration 15 nM.
as §3, §4, §5, §6, §7, §8, §9

[3] = biological target: KRAS (WT)::CRAF protein::protein interaction (Homo sapiens (Human), UniProt P01116); assay: KRAS TR-FRET assay (KRAS WT::CRAF, GTP); format: binding
Description: as §1, §2
KRAS (WT) 1-169, N-terminal 6His-tag, C-terminal avi-tag (Boehringer Ingelheim in house protein prep); final assay concentration 15 nM.
as §3, §4, §5, §6, §7, §8, §9

[4] = Caco-2 assay (permeability and efflux ratio); format: in vitro ADME; details: human; for Papp A→B at 90 min, 10 μM: Caco-2 apical to basolateral permeability, pH 7.4, read-out: Caco PappAB; for efflux ratio at 90 min, 10 μM: pH 7.4, Caco-2 efflux ratio PappBA/PappAB, read-out: Caco ER
Description: The assay provides information on the potential of a compound to pass the cell membrane, on the extent of oral absorption as well as on whether the compound is actively transported by uptake and/or efflux transporters. Permeability measurements across polarized, confluent Caco-2 cell monolayers grown on permeable filter supports (Corning, catalog #3391) are used. 10 μM test compound solution in assay buffer (128.13 mM NaCl, 5.36 mM KCl, 1 mM MgSO4, 1.8 mM CaCl2), 4.17 mM NaHCO3, 1.19 mM Na2HPO4, 0.41 mM NaH2PO4, 15 mM 2-[4-(2-hydroxyethyl)piperazin-1-yl]ethanesulfonic acid (HEPES), 20 mM glucose, pH 7.4) was added to the donor compartment of the cell chamber containing a monolayer of Caco-2 cells in between the donor and the receiver compartment. The receiver and donor compartments contain 0.25% bovine serum albumine (BSA) in assay buffer. Passive diffusion and/or active transport of compounds across the monolayer is measured in both apical to basolateral (a-b) and basolateral to apical (b-a) direction. a-b permeability (PappAB) represents drug absorption from the intestine into the blood and b-a permeability (PappBA) drug secretion from the blood back into the intestine via both passive permeability as well as active transport mechanisms mediated by efflux and uptake transporters that are expressed on the Caco-2 cells. After a pre-incubation of 25-30 min at 37° C., at predefined time points (0, 30, 60 and 90 min), samples were taken from the receiver and donor compartment, respectively. Concentrations of test compounds in samples were measured by HPLC/MS/MS, samples from the donor compartment were diluted 1:50 (v:v) with assay buffer, samples from receiver compartment were measured without dilution.
Apparent permeabilities in a-b (PappAB) and b-a (PappBA) directions are calculated according to the formula:
[formula] • Vrec [mL]: buffer volume in receiver compartment • Cdon [μmol/mL]: concentration of test compound in donor compartment at t=0 • ΔCrec: difference between concentrations of test compound in receiver compartment at start and end of incubation time • Δt: Incubation time • Vrec·ΔCrec/Δt [μmol/min]: Amount of compound transferred to receiver compartment per time • A [cm^2]: filter surface
Caco-2 efflux ratios (ER) are calculated as the ratio of PappBA/PappAB.

Chain of KRAS (WT)::CRAF protein::protein interaction (P01116 other isoform, or with tags, fused parts or gaps): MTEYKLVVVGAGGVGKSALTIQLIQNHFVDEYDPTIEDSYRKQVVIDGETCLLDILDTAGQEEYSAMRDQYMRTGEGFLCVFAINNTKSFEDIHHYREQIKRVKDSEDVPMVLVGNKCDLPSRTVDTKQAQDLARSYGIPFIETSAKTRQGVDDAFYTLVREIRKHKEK
Chain of KRAS (G12D)::CRAF protein::protein interaction (P01116 other isoform, or with tags, fused parts or gaps G12D): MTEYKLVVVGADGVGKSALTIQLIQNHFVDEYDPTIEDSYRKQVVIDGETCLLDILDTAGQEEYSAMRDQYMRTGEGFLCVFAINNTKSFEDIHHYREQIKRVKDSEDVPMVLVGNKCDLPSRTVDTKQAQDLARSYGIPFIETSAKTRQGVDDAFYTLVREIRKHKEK
Chain of KRAS (G12V)::CRAF protein::protein interaction (P01116 other isoform, or with tags, fused parts or gaps G12V/C118S): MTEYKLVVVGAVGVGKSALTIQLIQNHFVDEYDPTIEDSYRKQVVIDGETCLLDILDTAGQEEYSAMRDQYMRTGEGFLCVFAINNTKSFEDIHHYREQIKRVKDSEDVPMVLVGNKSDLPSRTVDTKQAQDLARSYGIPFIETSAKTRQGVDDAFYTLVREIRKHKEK

Compound | IC50 [1] | IC50 [2] | IC50 [3] | Papp A→B at 90 min, 10 μM [4] | efflux ratio at 90 min, 10 μM [4]
CO[C@H]1C[C@@H]([C@H](C)Oc2nc(-c3onc4c3CCC[C@@]43CCCc4sc(N)c(C#N)c43)nc3c2n(C)c(=O)n3[C@@H]2CCOC2)N(C)C1 [I-2] | 400 nM | 180 nM | 422 nM | – | –
C[C@H](Oc1nc(-c2onc3c2CCC[C@@]32CCCc3sc(N)c(C#N)c32)nc2c1n(C)c(=O)n2[C@@H]1CCOC1)[C@@H]1[C@@H](F)CCN1C [I-5] | 449 nM | 266 nM | 657 nM | – | –
COCCn1c(=O)n(C)c2c(O[C@@H](C)[C@@H]3CCCN3C)nc(-c3onc4c3CCC[C@@]43CCCc4sc(N)c(C#N)c43)nc21 [I-7] | 2260 nM | 451 nM | 1150 nM | – | –
C[C@H](Oc1nc(-c2onc3c2CCC[C@@]32CCCc3sc(N)c(C#N)c32)nc2c1n(C)c(=O)n2C1CCOCC1)[C@@H]1CCCN1C [I-10] | 698 nM | 110 nM | 348 nM | – | –
C[C@H](Oc1nc(-c2onc3c2CCC[C@@]32CCCc3sc(N)c(C#N)c32)nc2c1n(C)c(=O)n2[C@H]1CCCOC1)[C@@H]1CCCN1C [I-11] | 460 nM | 315 nM | 338 nM | – | –
C[C@H](Oc1nc(-c2onc3c2CCC[C@@]32CCCc3sc(N)c(C#N)c32)nc2c1n(C)c(=O)n2C12COC(C1)C2)[C@@H]1CCCN1C [I-15] | 298 nM | 150 nM | 179 nM | – | –
C[C@H](Oc1nc(-c2onc3c2CCC[C@@]32CCCc3sc(N)c(C#N)c32)nc2c1n(C)c(=O)n2[C@@H]1CCOC1)[C@@H]1C[C@@H](F)CN1C [I-22] | 138 nM | 60 nM | 133 nM | – | –
CO[C@H]1CCN(C)[C@@H]1[C@H](C)Oc1nc(-c2onc3c2CCC[C@@]32CCCc3sc(N)c(C#N)c32)nc2c1n(C)c(=O)n2[C@@H]1CCOC1 [I-23] | 52 nM | 25 nM | 59 nM | – | –
C[C@@H]1COC[C@H](n2c(=O)n(C)c3c(O[C@@H](C)[C@@H]4CCCN4C)nc(-c4onc5c4CCC[C@@]54CCCc5sc(N)c(C#N)c54)nc32)C1 [I-44] | – | – | – | 14 ×10⁻⁶ cm/s | 2.5
C[C@H](Oc1nc(-c2onc3c2CCC[C@@]32CCCc3sc(N)c(C#N)c32)nc2c1n(C)c(=O)n2[C@@]12COC[C@@H]1C2)[C@@H]1CC[C@H](C)N1C [I-45] | – | – | – | 43 ×10⁻⁶ cm/s | 0.6
CO[C@@H]1C[C@@H]([C@H](C)Oc2nc(-c3onc4c3CCC[C@@]43CCCc4sc(N)c(C#N)c43)nc3c2n(C)c(=O)n3[C@@]23COC[C@@H]2C3)N(C)C1 [I-46] | – | – | – | 21 ×10⁻⁶ cm/s | 1.8
CO[C@H]1CCN(C)[C@@H]1[C@H](C)Oc1nc(-c2onc3c2CCC[C@@]32CCCc3sc(N)c(C#N)c32)nc2c1n(C)c(=O)n2[C@H]1COC[C@@H](C)C1 [I-51] | – | – | – | 36 ×10⁻⁶ cm/s | 0.5
CO[C@@H]1C[C@@H]([C@H](C)Oc2nc(-c3onc4c3CCC[C@@]43CCCc4sc(N)c(C#N)c43)nc3c2n(C)c(=O)n3[C@H]2COC[C@@H](C)C2)N(C)C1 [I-52] | – | – | – | 34 ×10⁻⁶ cm/s | 0.6
C[C@H](Oc1nc(-c2onc3c2CCC[C@@]32CCCc3sc(N)c(C#N)c32)nc2c1CN(C1COC1)C[C@]21CCOC1)[C@@H]1CC[C@H](C)N1C [I-55] | – | – | – | 24 ×10⁻⁶ cm/s | 2.3
C[C@H](Oc1nc(-c2onc3c2CCC[C@@]32CCCc3sc(N)c(C#N)c32)nc2c1CN(C1COC1)C[C@]21CCOC1)[C@@H]1CCCN1C [I-56] | – | – | – | 8.4 ×10⁻⁶ cm/s | 7.1
CO[C@H]1CCN(C)[C@@H]1[C@H](C)Oc1nc(-c2onc3c2CCC[C@@]32CCCc3sc(N)c(C#N)c32)nc2c1CN(C1COC1)C[C@]21CCOC1 [I-57] | – | – | – | 35 ×10⁻⁶ cm/s | 1.3
C[C@H](Oc1nc(-c2noc3c2CCC[C@@]32CCCc3sc(N)c(C#N)c32)nc2c1n(C)c(=O)n2[C@H]1CO[C@@H](C)C1)[C@@H]1CCCN1C [II-5] | – | – | – | 8.7 ×10⁻⁶ cm/s | 5.9
CO[C@@H]1C[C@@H]([C@H](C)Oc2nc(-c3noc4c3CCC[C@@]43CCCc4sc(N)c(C#N)c43)nc3c2n(C)c(=O)n3[C@@]23COC[C@@H]2C3)N(C)C1 [II-6] | – | – | – | 13 ×10⁻⁶ cm/s | 4.3
CO[C@@H]1C[C@@H]([C@H](C)Oc2nc(-c3noc4c3CCC[C@@]43CCCc4sc(N)c(C#N)c43)nc3c2COC[C@]32CCOC2)N(C)C1 [II-11] | – | – | – | 27 ×10⁻⁶ cm/s | 0.9
C[C@H](Oc1nc(-c2noc3c2CCC[C@@]32CCCc3sc(N)c(C#N)c32)nc2c1CN(C1COC1)C[C@]21CCOC1)[C@@H]1CCCN1C [II-12] | – | – | – | 2.9 ×10⁻⁶ cm/s | 21.6
CO[C@H]1CCN(C)[C@@H]1[C@H](C)Oc1nc(-c2noc3c2CCC[C@@]32CCCc3sc(N)c(C#N)c32)nc2c1CN(C1COC1)C[C@]21CCOC1 [II-13] | – | – | – | 18 ×10⁻⁶ cm/s | 2.9
CO[C@@H]1C[C@@H]([C@H](C)Oc2nc(-c3noc4c3CCC[C@@]43CCCc4sc(N)c(C#N)c43)nc3c2CN(C2COC2)C[C@]32CCOC2)N(C)C1 [II-14] | – | – | – | 3.2 ×10⁻⁶ cm/s | 15.3
C[C@H](Oc1nc(-c2noc3c2CCC[C@@]32SCCc3sc(N)c(C#N)c32)nc2c1COC[C@]21CCOC1)[C@@H]1CCCN1C [II-16] | – | – | – | 12 ×10⁻⁶ cm/s | 3.8
C[C@H](Oc1nc(-c2noc3c2CCC[C@@]32CCCc3sc(N)c(C#N)c32)nc2c1CN(C1COC1)C[C@]21CCOC1)[C@@H]1CC[C@H](C)N1C [II-17] | – | – | – | 16 ×10⁻⁶ cm/s | 3.4
